Experimental data published in PubChem BioAssay AID264 (DTP/NCI, 2004).
“And” between values parts separate entries of the source, which are not always exact repeats. Identical values can stand only once. Results filed as inconclusive are left out.

System: nude mice, LX-1 lung xenograft intrarenal, tumor weight T/C
Test: NCI In Vivo Anticancer Drug Screen. Data for tumor model Human Lung LX-1 Xenograft (intrarenal inoculation) in NU/NU Swiss (nude) mice
Conditions: endpoint: mean tumor weight change, higher = larger tumour
In short: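 Compound-treated mice carrying transplanted tumors were compared with vehicle-treated controls. Tumor size was the measured end point, and the value is the treated-group measurement divided by the control-group measurement (T/C).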

[1] = dose: 75.0 mg/kg/injection, schedule: Q04DX003 (sc), vehicle: saline with Tween-80
[2] = dose: 150.0 mg/kg/injection, schedule: Q04DX003 (sc), vehicle: saline with Tween-80
[3] = dose: 600.0 mg/kg/injection, schedule: Q04DX003 (sc), vehicle: saline with Tween-80
[4] = dose: 300.0 mg/kg/injection, schedule: Q04DX003 (sc), vehicle: saline with Tween-80
[5] = dose: 300.0 mg/kg/injection, schedule: Q04DX003 (sc), vehicle: Klucel (hydroxypropylcellulose) (HPC)
[6] = dose: 600.0 mg/kg/injection, schedule: Q04DX003 (sc), vehicle: Klucel (hydroxypropylcellulose) (HPC)
[7] = dose: 1200.0 mg/kg/injection, schedule: Q04DX003 (sc), vehicle: Klucel (hydroxypropylcellulose) (HPC)
[8] = dose: 2400.0 mg/kg/injection, schedule: Q04DX003 (sc), vehicle: Klucel (hydroxypropylcellulose) (HPC)

Q: How did the T/C [1] turn out when `COc1ccc(S(=O)(=O)N=N/C=C2\C=CC=CN2O)cc1OC` was run?
A: 111 % of control

Q: What about the T/C [2] of the same compound?
A: 124 % of control

Q: What about the T/C [3] of the same compound?
A: 11 % of control

Q: Which T/C (dose: 1.0 mg/kg/injection, schedule: Q04DX003 (sc), vehicle: Klucel (hydroxypropylcellulose) (HPC)) does the source give for `O=C1C=C2C(=CCOC2O)O1` (stereo not drawn) here?
A: 158 % of control

Q: What about the T/C (dose: 2.0 mg/kg/injection, schedule: Q04DX003 (sc), vehicle: Klucel (hydroxypropylcellulose) (HPC)) of the same compound?
A: 92 % of control

Q: And the T/C (dose: 8.0 mg/kg/injection, schedule: Q04DX003 (sc), vehicle: Klucel (hydroxypropylcellulose) (HPC))?
A: 151 % of control

Q: For `Cc1[nH]c(=O)[nH]c(=O)c1N(CCF)CCCl`, which T/C (dose: 40.0 mg/kg/injection, schedule: Q01DX010 (sc), vehicle: Klucel (hydroxypropylcellulose) (HPC)) is on record?
A: 19 % of control and 34 % of control and 36 % of control

Q: For `CS(=O)(=O)OCCN(CCOS(C)(=O)=O)c1ccc(C=O)cc1`, which T/C (dose: 12.5 mg/kg/injection, schedule: Q01DX010 (sc), vehicle: saline) is on record?
A: 188 % of control

Q: What about the T/C (dose: 25.0 mg/kg/injection, schedule: Q01DX010 (sc), vehicle: saline) of the same compound?
A: 71 % of control

Q: What about the T/C (dose: 50.0 mg/kg/injection, schedule: Q01DX010 (sc), vehicle: saline) of the same compound?
A: 33 % of control

Q: How did the T/C (dose: 225.0 mg/kg/injection, schedule: Q04DX003 (sc), vehicle: Klucel (hydroxypropylcellulose) (HPC)) turn out when `COC1=CC(=O)N(C(=O)C2CSC(C(CO)NC(=O)c3csc(/C=N/O)n3)=N2)C1` (stereo not drawn) was run?
A: 59 % of control

Q: And the T/C (dose: 450.0 mg/kg/injection, schedule: Q04DX003 (sc), vehicle: Klucel (hydroxypropylcellulose) (HPC))?
A: 112 % of control

Q: And the T/C (dose: 900.0 mg/kg/injection, schedule: Q04DX003 (sc), vehicle: Klucel (hydroxypropylcellulose) (HPC))?
A: 87 % of control

Q: And the T/C (dose: 1800.0 mg/kg/injection, schedule: Q04DX003 (sc), vehicle: Klucel (hydroxypropylcellulose) (HPC))?
A: 50 % of control

Q: How did the T/C [1] turn out when `Cc1cc(=O)n2c3c(c4c(cc13)c(CN(C)C)cc(=O)n4C)OC2` was run?
A: 59 % of control

Q: What about the T/C [2] of the same compound?
A: 89 % of control

Q: And the T/C [4]?
A: 55 % of control

Q: How did the T/C (dose: 18.75 mg/kg/injection, schedule: Q04DX003 (sc), vehicle: Klucel (hydroxypropylcellulose) (HPC)) turn out when `C=C1C(=O)C23[C@H](O)C1CC[C@H]2[C@]12COC3(O)[C@@H](O)[C@@H]1C(C)(C)CC[C@@H]2O` was run?
A: 105 % of control

Q: And the T/C (dose: 37.5 mg/kg/injection, schedule: Q04DX003 (sc), vehicle: Klucel (hydroxypropylcellulose) (HPC))?
A: 49 % of control

Q: Which results are given for `CCC(=O)Sc1ccccc1C(=O)Nc1ccc(Cl)cc1`?
A: T/C [4]: 97 % of control; T/C [3]: 91 % of control; T/C (dose: 2400.0 mg/kg/injection, schedule: Q04DX003 (sc), vehicle: saline with Tween-80): 98 % of control

Q: For `Nc1n[n+](-c2ccccc2)no1`, which T/C (dose: 37.5 mg/kg/injection, schedule: Q04DX003 (sc), vehicle: water) is on record?
A: 87 % of control

Q: What about the T/C (dose: 75.0 mg/kg/injection, schedule: Q04DX003 (sc), vehicle: water) of the same compound?
A: 89 % of control

Q: How did the T/C (dose: 200.0 mg/kg/injection, schedule: Q01DX010 (sc), vehicle: Klucel (hydroxypropylcellulose) (HPC)) turn out when `C=C(NC(=O)C(=C)NC(=O)c1csc(C2=NC3c4csc(n4)C4NC(=O)c5csc(n5)C(C(C)(O)C(C)O)NC(=O)C5CSC(=N5)/C(=C/C)NC(=O)C(C(C)O)NC(=O)c5csc(n5)C3(CC2)NC(=O)C(C)NC(=O)C(=C)NC(=O)C(C)NC(=O)C(C(C)CC)NC2C=Cc3c(C(C)O)cc(nc3C2O)C(=O)OC4C)n1)C(N)=O` (stereo not drawn) was run?
A: 90 % of control

Q: And the T/C (dose: 400.0 mg/kg/injection, schedule: Q01DX010 (sc), vehicle: Klucel (hydroxypropylcellulose) (HPC))?
A: 65 % of control

Q: What about the T/C (dose: 1600.0 mg/kg/injection, schedule: Q01DX010 (sc), vehicle: Klucel (hydroxypropylcellulose) (HPC)) of the same compound?
A: 53 % of control

Q: With `C(=N/NC1=NCCN1)/c1c2ccccc2c(/C=N\NC2=NCCN2)c2ccccc12` as the compound, how does the T/C (dose: 18.75 mg/kg/injection, schedule: Q04DX003 (sc), vehicle: suspension in saline) read?
A: 117 % of control

Q: And the T/C (dose: 75.0 mg/kg/injection, schedule: Q04DX003 (sc), vehicle: suspension in saline)?
A: 72 % of control

Q: What about the T/C (dose: 150.0 mg/kg/injection, schedule: Q04DX003 (sc), vehicle: suspension in saline) of the same compound?
A: 49 % of control

Q: `O=C(O)c1cc(Cc2ccc(O)c(C(=O)O)c2)ccc1O` (tested in a mixture with another compound) was tested. Which T/C [5] did it give?
A: 89 % of control

Q: What about the T/C [6] of the same compound?
A: 64 % of control

Q: And the T/C [7]?
A: 91 % of control

Q: What about the T/C [8] of the same compound?
A: 68 % of control

Q: Which results are given for `CO[C@H]1C[C@](C)(O)Cc2cc3c(c(O)c21)C(=O)c1c(O)cc2c(c1C3=O)O[C@@H]1O[C@@]2(C)[C@H](O)[C@@H](N(C)C)[C@@H]1O`?
A: T/C (dose: 3.12 mg/kg/injection, schedule: Q01DX010 (sc), vehicle: other): 68 % of control; T/C (dose: 6.25 mg/kg/injection, schedule: Q01DX010 (sc), vehicle: other): 63 % of control and 70 % of control; T/C (dose: 12.5 mg/kg/injection, schedule: Q01DX010 (sc), vehicle: other): 23 % of control

Q: `CCC1(O)CC2CN(CCc3c([nH]c4ccccc34)C(C(=O)OC)(c3cc4c(cc3OC)N(C)C3C(O)(C(N)=O)C(O)C5(CC)C=CCN6CCC43C65)C2)C1` (stereo not drawn) (tested in a mixture with another compound) was tested. Which T/C (dose: 1.5 mg/kg/injection, schedule: Q04DX003 (sc), vehicle: water) did it give?
A: 28 % of control

Q: Which results are given for `CC1=NNC(=O)C1CCO` (stereo not drawn)?
A: T/C [5]: 112 % of control; T/C [6]: 115 % of control; T/C [7]: 82 % of control; T/C [8]: 106 % of control

Q: Which T/C (dose: 300.0 mg/kg/injection, schedule: Q04DX003 (sc), vehicle: saline) does the source give for `C1CNCOC1` here?
A: 90 % of control

Q: What does the source list for `O=NN(CCCl)C(=O)NC1CCCCC1`?
A: T/C (dose: 4.0 mg/kg/injection, schedule: Q01DX010 (ip), vehicle: saline with Tween-80): 101 % of control; T/C (dose: 8.0 mg/kg/injection, schedule: Q01DX010 (ip), vehicle: saline with Tween-80): 19 % of control; T/C (dose: 8.0 mg/kg/injection, schedule: Q01DX010 (sc), vehicle: saline with Tween-80): 112 % of control; T/C (dose: 8.0 mg/kg/injection, schedule: Q04DX003 (sc), vehicle: carboxymethylcellulose (CMC)): 64 % of control and 65 % of control; T/C (dose: 12.5 mg/kg/injection, schedule: Q04DX003 (sc), vehicle: Klucel (hydroxypropylcellulose) (HPC)): 35 % of control; T/C (dose: 13.33 mg/kg/injection, schedule: Q04DX003 (ip), vehicle: saline with Tween-80): 236 % of control; T/C (dose: 16.0 mg/kg/injection, schedule: Q01DX010 (ip), vehicle: saline with Tween-80): 11 % of control; T/C (dose: 16.0 mg/kg/injection, schedule: Q01DX010 (sc), vehicle: saline with Tween-80): 79 % of control; T/C (dose: 26.65 mg/kg/injection, schedule: Q04DX003 (ip), vehicle: saline with Tween-80): 152 % of control; T/C (dose: 32.0 mg/kg/injection, schedule: Q01DX010 (sc), vehicle: saline with Tween-80): -16 % of control; T/C (dose: 32.0 mg/kg/injection, schedule: Q04DX003 (sc), vehicle: carboxymethylcellulose (CMC)): 45 % of control and 52 % of control; T/C (dose: 50.0 mg/kg/injection, schedule: Q04DX003 (sc), vehicle: Klucel (hydroxypropylcellulose) (HPC)): 119 % of control; T/C (dose: 53.33 mg/kg/injection, schedule: Q04DX003 (ip), vehicle: saline with Tween-80): -38 % of control; T/C (dose: 64.0 mg/kg/injection, schedule: Q04DX003 (sc), vehicle: carboxymethylcellulose (CMC)): 10 % of control and 29 % of control

Q: Which T/C (dose: 800.0 mg/kg/injection, schedule: Q04DX003 (sc), vehicle: saline) does the source give for `NC(=O)CC(N)C(=O)O` (stereo not drawn) here?
A: 87 % of control

Q: And the T/C (dose: 1600.0 mg/kg/injection, schedule: Q04DX003 (sc), vehicle: saline)?
A: 102 % of control

Q: And the T/C (dose: 3200.0 mg/kg/injection, schedule: Q04DX003 (sc), vehicle: saline)?
A: 77 % of control

Q: How did the T/C (dose: 200.0 mg/kg/injection, schedule: Q04DX003 (sc), vehicle: Klucel (hydroxypropylcellulose) (HPC)) turn out when `C[C@H]1C[C@@H]2[C@H]([C@@H](O)C[C@@]3(C)[C@H]2CC[C@]3(O)C(=O)CO)[C@@]2(C)C=CC(=O)C=C12` was run?
A: 76 % of control

Q: What about the T/C (dose: 400.0 mg/kg/injection, schedule: Q04DX003 (sc), vehicle: Klucel (hydroxypropylcellulose) (HPC)) of the same compound?
A: 58 % of control

Q: What about the T/C (dose: 800.0 mg/kg/injection, schedule: Q04DX003 (sc), vehicle: Klucel (hydroxypropylcellulose) (HPC)) of the same compound?
A: 59 % of control

Q: How did the T/C (dose: 200.0 mg/kg/injection, schedule: Q04DX003 (sc), vehicle: saline) turn out when `CC1(C)COCN1COCCOCN1COCC1(C)C` was run?
A: 169 % of control

Q: What about the T/C (dose: 400.0 mg/kg/injection, schedule: Q04DX003 (sc), vehicle: saline) of the same compound?
A: 191 % of control

Q: What does the source list for `Cc1ccc(C2NC(=O)c3ccccc3N2)s1` (stereo not drawn)?
A: T/C [6]: 106 % of control; T/C [7]: 86 % of control; T/C [8]: 82 % of control; T/C (dose: 4800.0 mg/kg/injection, schedule: Q04DX003 (sc), vehicle: Klucel (hydroxypropylcellulose) (HPC)): 94 % of control

Q: For `C=C/C(C)=C/[C@H](C)C(=O)C[C@H](O)CC1CC(=O)NC(=O)C1`, which T/C [1] is on record?
A: 111 % of control

Q: What about the T/C [2] of the same compound?
A: 61 % of control

Q: What about the T/C [4] of the same compound?
A: 69 % of control

Q: What about the T/C [3] of the same compound?
A: 70 % of control
